# Experiments:
# [1] = test system: C25: single-strain DNA chain, comprising 25 Cytosines; assay: Fluorescence N*/T* ratio vs DNA concentration, C25; settings: C25 added to 3-HFNMe3 in ultra pure water
# Experimental: C25: A single-strain DNA chain, comprising 25 Cytosines
# (§1) Fluorescence emission was then recorded after each addition the DNA solution (2 μl, 20 nmol/ml). The ratio of N* and T* bands was calculated and a graph, having N*/T* ratio vs DNA concentration was plotted.
# [2] = test system: single-strain DNA chains; assay: Fluorescence measurements on gradual addition of DNA solution; settings: ultra pure water; DNA solution added in 2 μl portions (20 nmol/ml)
# Experimental: as §1
# [3] = test system: T25: single-strain DNA chain, comprising 25 Thymines; assay: Fluorescence N*/T* ratio vs DNA concentration, T25; settings: T25 added to 3-HFNMe3 in ultra pure water
# Experimental: T25: A single-strain DNA chain, comprising 25 Thymines
# as §1
substance,measurement,setting,value
"N-(3-hydroxy-4′-flavonyl)-N,N,N-trimethylammonium sulphate [3-HFNMe3]","N*/T* curve, rank among DNA chains",[1],highest
same,effect of DNA addition on fluorescence emission,[2],ratiometric quenching of particularly the N* band
same,"N*/T* curve, rank among DNA chains",[3],lowest

# From US9758501B2, “Fluorophore 3-hydroxyflavone” (TUBITAK (TURKIYE BILIMSEL VE TEKNOLOJIK ARASTIRMA KURUMU), priority 2013, dated 2017)
